Our source for the IC50 values is ChEMBL document CHEMBL6178006, “Novel Spirocyclic WRN Helicase Inhibitors for Treating Cancer” (ACS Med Chem Lett, 2025).

This test concerns the target Bifunctional 3'-5' exonuclease/ATP-dependent helicase WRN (Homo sapiens, UniProt Q14191). Briefly: Inhibition of WRN helicase (500 to 942 residues)(unknown origin) using fluor/quencher-labeled forked double-stranded DNA substrate assessed as decrease in helicase unwinding activity preincubated for 1 hr followed by substrate addition measured after 1 hr in presence of ATP by fluorescence based assay.

Bifunctional 3'-5' exonuclease/ATP-dependent helicase WRN, sequence (Q14191 whole entry, the tested form may be a part): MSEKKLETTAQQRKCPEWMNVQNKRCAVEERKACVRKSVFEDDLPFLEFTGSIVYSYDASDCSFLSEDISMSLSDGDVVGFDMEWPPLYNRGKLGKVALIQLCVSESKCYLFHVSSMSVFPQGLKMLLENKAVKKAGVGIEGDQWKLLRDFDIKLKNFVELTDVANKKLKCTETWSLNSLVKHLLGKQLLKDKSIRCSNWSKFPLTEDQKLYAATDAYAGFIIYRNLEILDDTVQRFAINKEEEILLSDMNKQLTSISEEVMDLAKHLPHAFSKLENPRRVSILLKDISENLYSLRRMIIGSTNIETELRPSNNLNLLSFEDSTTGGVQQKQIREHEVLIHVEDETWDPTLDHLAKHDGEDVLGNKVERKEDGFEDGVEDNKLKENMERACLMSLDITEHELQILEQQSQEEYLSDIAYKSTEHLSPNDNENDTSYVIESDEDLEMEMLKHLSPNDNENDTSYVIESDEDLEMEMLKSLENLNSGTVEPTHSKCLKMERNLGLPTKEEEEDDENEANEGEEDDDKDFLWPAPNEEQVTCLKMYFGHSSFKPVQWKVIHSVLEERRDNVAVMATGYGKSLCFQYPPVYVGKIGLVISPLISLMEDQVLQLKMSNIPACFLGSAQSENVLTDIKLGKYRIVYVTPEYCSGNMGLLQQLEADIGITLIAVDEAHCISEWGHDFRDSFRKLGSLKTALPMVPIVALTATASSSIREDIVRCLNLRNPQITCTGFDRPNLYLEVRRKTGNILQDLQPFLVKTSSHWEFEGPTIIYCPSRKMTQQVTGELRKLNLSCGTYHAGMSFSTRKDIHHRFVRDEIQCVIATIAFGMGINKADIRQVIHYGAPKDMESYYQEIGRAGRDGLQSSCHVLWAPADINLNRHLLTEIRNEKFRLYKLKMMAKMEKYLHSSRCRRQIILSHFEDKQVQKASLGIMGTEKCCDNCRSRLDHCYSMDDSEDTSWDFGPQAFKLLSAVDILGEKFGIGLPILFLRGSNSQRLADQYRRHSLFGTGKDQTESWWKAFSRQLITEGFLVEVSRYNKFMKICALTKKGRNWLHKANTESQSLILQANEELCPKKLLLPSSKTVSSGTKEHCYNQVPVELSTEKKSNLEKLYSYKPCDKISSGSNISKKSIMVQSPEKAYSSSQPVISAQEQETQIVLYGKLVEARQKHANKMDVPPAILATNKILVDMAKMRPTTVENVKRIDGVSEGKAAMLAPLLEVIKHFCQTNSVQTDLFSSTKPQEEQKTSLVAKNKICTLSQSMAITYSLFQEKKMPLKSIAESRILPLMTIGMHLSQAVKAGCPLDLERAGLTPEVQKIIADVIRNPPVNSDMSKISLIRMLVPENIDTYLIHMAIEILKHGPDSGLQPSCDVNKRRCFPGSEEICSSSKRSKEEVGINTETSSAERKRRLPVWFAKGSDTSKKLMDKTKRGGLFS

Broadly, the IC50 is the concentration needed to halve the response being measured. Regarding `CC(=O)N1CC=C(c2nc3n(CC(=O)Nc4ccc(C(F)(F)F)cc4Cl)c4c(c(=O)n3n2)C2(CCN(C(=O)c3ncccc3O)CC2)CC4C)CC1` (configuration not stated), the half-inhibitory concentration (IC50) worked out at 2 nM. For the molecule `CC1CC2(CCN(C(=O)c3ncccc3O)CC2)c2c1n(CC(=O)Nc1ccc(C(F)(F)F)cc1)c1nc(C3=CCOCC3)nn1c2=O` (configuration not stated), the half-maximal inhibitory concentration (IC50) stood at 1.9 nM.
